The values below come from paper PMC12096829, “Maltodextrin transport in the extremely thermophilic, lignocellulose degrading bacterium Anaerocellum bescii (f. Caldicellulosiruptor bescii)” (Journal of Bacteriology, 2025).

Values joined by “and” are separate entries in the source; they are usually repeats but may differ in a detail not shown here. Equal entries are not always repeated. Where two headings read alike, the source gives them in different places.

The target of assay [1] is T1, Athe_2310 (Anaerocellum bescii, UniProt A0ABY1S743). In words: DSC thermal shift of Athe_2310 with ɑ-glucan substrates. In kind it is binding. As to conditions: 5 mM sugar, 50 mM HEPES, 300 mM NaCl pH 7.0; for Tm: Athe_2310 + sugar, 2.5 mg/mL protein; for ΔTm: Athe_2310, |Tm,holo − Tm,apo|. The text has this:
(§1) In DSC, proteins are heated at a constant rate to induce thermal denaturation. This can be measured by an increase in the protein’s specific heat capacity Cp(T) as a function of temperature. The melting temperature Tm is defined as the temperature at which the protein attains its maximum heat capacity and becomes fully denatured ([46]). However, the presence of their cognate ligands can induce substrate-binding proteins to adopt a more thermally stable closed conformation, resulting in an increase in Tm ([47]). This ΔTm = |Tm,holo − Tm,apo| difference can be used to determine differential substrate specificity, as preferred ligands that are more tightly bound will yield larger ΔTm values. […] However, other short ɑ-glucans trehalose (ΔTm = 7.23 °C) and maltotriose (ΔTm = 6.63 °C) also yield substantial melting temperature differences. Melting temperature differences are subtler with longer oligosaccharides maltotetraose (ΔTm = 1.57 °C), maltopentaose (ΔTm = 0.95 °C), and maltoheptaose (ΔTm = 0.26 °C) (Fig. 4a). However, as binding of maltose to E. coli MBP is known to increase protein melting temperature by approximately 8 °C, depending on pH, it is unlikely binding is taking place between Athe_2310 and longer maltodextrins (G4–G7) due to their much smaller ΔTm values in comparison ([47], [48]).
(§2) DSC measurements using a MicroCal PEAQ-DSC (Malvern Panalytical) were performed on Athe_2310 and Athe_2574 in combination with a variety of ɑ-glucans: trehalose (G2), maltose (G2), maltotriose (G3), maltotetraose (G4), maltopentaose (G5), and maltoheptaose (G7). The scan rate was set to […], with a max temperature of 130 °C. Protein was mixed with each sugar, yielding final concentrations of 2.5 mg/mL of protein and 5 mM of sugar. A total of 50 mM HEPES, 300 mM NaCl, pH 7.0, was used as the reference buffer. The heat capacity Cp was plotted against temperature and then normalized by the respective run’s maximum Cp value ( Cp,max ). We defined the melting temperature Tm as the temperature corresponding to Cp,max=Cp(T=Tm) . The melting temperature difference ΔTm=|Tm,holo-Tm,apo| is defined as the absolute difference in melting temperature between the melting temperature of a protein-sugar mix and the same protein with no sugar present.
(Differential scanning calorimetry records heat flow against a reference as temperature is scanned.)

The target of assay [2] is T2, Athe_2574 (Anaerocellum bescii, UniProt A0ABY1S640). The experiment in a line: biochemical. Type of assay: binding. The settings on record: ITC 25 °C; for Kd: 50 mM HEPES; for Ka: Ka=1/Kd; for n (stoichiometry): single-site binding model. The protocol: (§3) Proteins were dialyzed into the following buffer: 50 mM HEPES, 300 mM NaCl, pH 7.0 via 10 kDa MWCO PES filter 20 mL Spin-X Concentrators (Corning). Measurements were performed at 25 °C using a MicroCal PEAQ Isothermal Titration Calorimeter (Malvern Panalytical). A standard titration experiment consisted of the protein sample at 50 µM and the sugar ligand at 500 µM. The stirring was set at 750 rpm. The 280 µL sample of protein was injected with a priming aliquot of 0.2 µL of sugar ligand, followed by 19 successive injections of 2.0 µL at 120 seconds intervals. Integrated heat effects were determined by non-linear regression using a single-site binding model (Microcal PEAQ-ITC Analysis). The fitted isotherms yield the binding dissociation constant and other thermodynamic parameters calculated using the differential form of the Gibbs Free Energy equation ΔGd=-RTln(Kd) . The slope of the binding isotherm at the equivalence point was used to determine the dissociation constant Kd . The association rate constant Ka is defined as Ka=1/Kd .
T2 sequence (A0ABY1S640 entry or part of it): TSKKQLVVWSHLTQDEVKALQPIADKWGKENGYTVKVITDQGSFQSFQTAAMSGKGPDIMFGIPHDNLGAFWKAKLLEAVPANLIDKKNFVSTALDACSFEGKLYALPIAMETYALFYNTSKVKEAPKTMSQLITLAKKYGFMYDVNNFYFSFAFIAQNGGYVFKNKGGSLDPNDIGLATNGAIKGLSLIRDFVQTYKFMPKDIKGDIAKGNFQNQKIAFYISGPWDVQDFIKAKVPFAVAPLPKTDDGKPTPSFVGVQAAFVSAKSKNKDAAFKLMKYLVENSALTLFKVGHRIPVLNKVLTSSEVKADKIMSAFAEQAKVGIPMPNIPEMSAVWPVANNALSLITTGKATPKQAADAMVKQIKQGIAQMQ

Assay [3] has as its target T2, Athe_2574. The experiment in a line: DSC thermal shift of Athe_2574 with ɑ-glucan substrates. In kind it is binding. As to conditions: for Tm: Athe_2574 + sugar, 2.5 mg/mL protein; for Tm / ΔTm: 5 mM sugar, 50 mM HEPES, 300 mM NaCl pH 7.0; for ΔTm: |Tm,holo − Tm,apo|.
Description: as §1, §2

Assay [4] has as its target T1, Athe_2310. The experiment in a line: ITC of Athe_2310 with ɑ-glucan substrates. In kind it is binding. As to conditions: Athe_2310, ITC 25 °C; for Kd: 50 mM HEPES, 300 mM NaCl pH 7.0, read-out: Kd; for Ka: Ka=1/Kd; for n (stoichiometry): single-site binding model. The protocol: as §3, with “Measurements were performed at 25 °C using a MicroCal PEAQ Isothermal Titration Calorimeter (Malvern Panalytical).” left out, “.” for “. The association rate constant Ka is defined as Ka=1/Kd .”

Assay [5] has as its system Athe_2310_Mut1 (D69F G279F G278F). The experiment in a line: DSC screen of mutant Athe_2310_Mut1 with maltodextrins. As to conditions: Fig. S5, result in words. Type of assay: binding, Anaerocellum bescii.
Description: We constructed mutant variants Athe_2310_Mut1 (D69F G279F G278F) and Athe_2574_Mut1 (G253F V254F P61W N63F D64F M322A W332A) that each contain point substitutions on residues predicted to be critical for both hydrophobic and hydrophilic contacts. In other words, the mutation of these residues is predicted to confer energetic penalties sufficiently large to prevent substrate binding. […] Similarly, Athe_2574_Mut1, with seven-point mutations due to its greater number of subsites, can no longer recognize maltodextrin substrates of any length (Fig. S6).
as §2, with “The melting temperature difference ΔTm=|Tm,holo-Tm,apo| is defined as the absolute difference in melting temperature between the melting temperature of a protein-sugar mix and the same protein with no sugar present.” left out

The mark [6] stands for this setting: 300 mM NaCl pH 7.0, read-out: Kd.

A word on the Tm: it is the temperature at the midpoint of the melting transition. One may read the Kd as the free concentration of one partner at which half of the binding sites on the other are occupied at equilibrium, for simple one-to-one binding. One may read the ΔTm as the change in melting temperature against a reference sample.

T1 sequence (A0ABY1S743 entry or part of it): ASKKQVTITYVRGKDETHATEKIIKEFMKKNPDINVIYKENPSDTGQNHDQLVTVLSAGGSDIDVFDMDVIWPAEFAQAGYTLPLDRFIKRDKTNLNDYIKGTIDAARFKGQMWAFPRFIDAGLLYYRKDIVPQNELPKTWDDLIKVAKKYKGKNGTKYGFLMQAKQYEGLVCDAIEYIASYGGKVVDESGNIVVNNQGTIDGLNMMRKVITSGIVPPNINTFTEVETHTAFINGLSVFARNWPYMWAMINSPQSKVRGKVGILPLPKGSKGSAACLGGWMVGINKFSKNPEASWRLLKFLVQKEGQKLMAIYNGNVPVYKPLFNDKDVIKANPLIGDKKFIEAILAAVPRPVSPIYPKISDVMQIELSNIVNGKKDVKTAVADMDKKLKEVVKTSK

Take `OC[C@H]1O[C@H](O[C@H]2[C@H](O)[C@@H](O)[C@@H](O[C@H]3[C@H](O)[C@@H](O)[C@@H](O[C@H]4[C@H](O)[C@@H](O)[C@@H](O[C@H]5[C@H](O)[C@@H](O)C(O)O[C@@H]5CO)O[C@@H]4CO)O[C@@H]3CO)O[C@@H]2CO)[C@H](O)[C@@H](O)[C@@H]1O` (stereo partly drawn) [MalG5, D-Maltopentaose]: at Athe_2310 [1], the Tm was 102.73 °C. In addition, the melting temperature (Tm) on Athe_2310 [1] (listed as Maltopentaose) came to 102.7 °C. Moreover, at Athe_2574 [2], the TΔS was -3.03 kcal/mol, the ΔG was -9.56 kcal/mol, the ΔH is -6.52 ± 0.07 kcal/mol and the Ka was determined as 9.901e+06 M⁻¹. The “n (stoichiometry)” value at Athe_2574 [2] is listed as 0.90 ± 0.00. The Kd on Athe_2574 [2] (setting [6]) came to 100 ± 10 nM. Also, the melting temperature (Tm) on Athe_2574 [3] was determined as 104.93 °C. In addition, the Tm on Athe_2574 [3] (listed as Maltopentaose) was 104.9 °C.
With `OC[C@H]1O[C@H](O[C@H]2O[C@H](CO)[C@@H](O)[C@H](O)[C@H]2O)[C@H](O)[C@@H](O)[C@@H]1O` [Trehalose, D-Trehalose Dihydrate], on Athe_2310 [4], the TΔS is -4.45 kcal/mol, the ΔG was -7.63 kcal/mol, the ΔH is -3.18 ± 0.14 kcal/mol and the dissociation constant (Kd) turned out to be 2590 ± 500 nM. Besides, at Athe_2310 [4], the Ka is 386000 M⁻¹ and the “n (stoichiometry)” value came out at 0.96 ± 0.02. On Athe_2310 [1], the Tm came to 109.02 °C and the ΔTm was 7.23 °C. At Athe_2574 [3], the melting temperature (Tm) is 92.8 °C and 92.69 °C. In addition, the “binding to Athe_2574 judged from DSC melting profile” value on Athe_2574 [3] (Athe_2574, result in words) is “absence of binding”. The shift in melting temperature (ΔTm) at Athe_2574 [3] (Athe_2574) amounted to 0.1 °C.
`OC[C@H]1O[C@H](O[C@H]2[C@H](O)[C@@H](O)[C@@H](O[C@H]3[C@H](O)[C@@H](O)[C@@H](O[C@H]4[C@H](O)[C@@H](O)C(O)O[C@@H]4CO)O[C@@H]3CO)O[C@@H]2CO)[C@H](O)[C@@H](O)[C@@H]1O` (stereo partly drawn) [MalG4, D-Maltotetraose]: the melting temperature (Tm) at Athe_2310 [1] was 103.36 °C. The melting temperature (Tm) on Athe_2310 [1] (listed as Maltotetraose) amounted to 103.4 °C. For the same compound, on Athe_2574 [2], the TΔS is given as 0.664 kcal/mol, the ΔG is -9.24 kcal/mol, the ΔH was -9.90 ± 0.19 kcal/mol and the Ka came out at 5.848e+06 M⁻¹. Moreover, the “n (stoichiometry)” value on Athe_2574 [2] is on record as 0.98 ± 0.01. The Kd on Athe_2574 [2] (setting [6]) is 170 ± 40 nM. Also, on Athe_2574 [3], the Tm was 104.26 °C. The Tm at Athe_2574 [3] (listed as Maltotetraose) was found to be 102.7 °C.
For the compound `OC[C@H]1O[C@H](O[C@H]2[C@H](O)[C@@H](O)[C@@H](O[C@H]3[C@H](O)[C@@H](O)[C@@H](O[C@H]4[C@H](O)[C@@H](O)[C@@H](O[C@H]5[C@H](O)[C@@H](O)[C@@H](O[C@H]6[C@H](O)[C@@H](O)[C@@H](O[C@H]7[C@H](O)[C@@H](O)C(O)O[C@@H]7CO)O[C@@H]6CO)O[C@@H]5CO)O[C@@H]4CO)O[C@@H]3CO)O[C@@H]2CO)[C@H](O)[C@@H](O)[C@@H]1O` (stereo partly drawn) [MalG7, D-Maltoheptaose], the Tm at Athe_2310 [1] was 102.06 °C. Moreover, the melting temperature (Tm) at Athe_2310 [1] (listed as Maltoheptaose) was found to be 102.1 °C. Moreover, at Athe_2574 [2], the TΔS was -2.69 kcal/mol, the ΔG is -9.98 kcal/mol, the ΔH was -7.29 ± 0.04 kcal/mol and the Ka was determined as 2.0492e+07 M⁻¹. Also, the “n (stoichiometry)” value on Athe_2574 [2] came out at 0.82 ± 0.00. Moreover, the Kd on Athe_2574 [2] (Kd, 300 mM NaCl pH 7.0) is 49 nM and 50 nM. Further, the Tm at Athe_2574 [3] was 105.04 °C. Besides, on Athe_2574 [3] (listed as Maltoheptaose), the Tm amounted to 105.0 °C.
On to `OC[C@H]1O[C@H](O[C@H]2[C@H](O)[C@@H](O)[C@@H](O[C@H]3[C@H](O)[C@@H](O)C(O)O[C@@H]3CO)O[C@@H]2CO)[C@H](O)[C@@H](O)[C@@H]1O` (stereo partly drawn) [MalG3, D-Maltotriose], for which the TΔS at Athe_2310 [4] was -4.85 kcal/mol; on Athe_2574 [2] it was 20.4 kcal/mol. The ΔG on Athe_2310 [4] is -7.21 kcal/mol; on Athe_2574 [2], -4.48 kcal/mol. Also, the ΔH on Athe_2310 [4] was -2.36 ± 0.38 kcal/mol; on Athe_2574 [2] it was -24.80 ± 2410 kcal/mol. Also, the equilibrium dissociation constant (Kd) on Athe_2310 [4] worked out at 5210 ± 2980 nM; on Athe_2574 [2] (setting [6]), 523000 nM. The Ka amounted to 192000 M⁻¹ at Athe_2310 [4] and 1900 M⁻¹ on Athe_2574 [2]. The “n (stoichiometry)” value at Athe_2310 [4] is given as 0.79 ± 0.06; at Athe_2574 [2], 1.57 ± 85.80. Besides, the “binding to Athe_2310_Mut1” value in assay [5] is “can no longer bind”. The Tm was 108.42 °C at Athe_2310 [1], 108.4 °C at Athe_2310 [1] (listed as Maltotriose), 101.47 °C on Athe_2574 [3] and 101.5 °C at Athe_2574 [3] (listed as Maltotriose). The thermal shift (ΔTm) at Athe_2310 [1] came out at 6.63 °C; at Athe_2574 [3] (Athe_2574) it was 8.72 °C.
